Results taken from ChEMBL document CHEMBL5465560, “Selectivity Literature for EUbOPEN Chemogenomic Library” (2024).

Key:
[1] = target: Dual specificity tyrosine-phosphorylation-regulated kinase 1B (Homo sapiens, UniProt Q9Y463); test: Selectivity interaction (KinomeScan (DiscoverX)) EUB0000092b DYRK1B; conditions: at 10 µM
[2] = target: PAS domain-containing serine/threonine-protein kinase (Homo sapiens) (UniProt Q96RG2); test: Selectivity interaction (Upstate Kinase Profiler service (Millipore)) EUB0000056c PASK; conditions: at 1 µM
Sequence of PAS domain-containing serine/threonine-protein kinase (Homo sapiens) (Q96RG2 whole entry, the tested form may be a part): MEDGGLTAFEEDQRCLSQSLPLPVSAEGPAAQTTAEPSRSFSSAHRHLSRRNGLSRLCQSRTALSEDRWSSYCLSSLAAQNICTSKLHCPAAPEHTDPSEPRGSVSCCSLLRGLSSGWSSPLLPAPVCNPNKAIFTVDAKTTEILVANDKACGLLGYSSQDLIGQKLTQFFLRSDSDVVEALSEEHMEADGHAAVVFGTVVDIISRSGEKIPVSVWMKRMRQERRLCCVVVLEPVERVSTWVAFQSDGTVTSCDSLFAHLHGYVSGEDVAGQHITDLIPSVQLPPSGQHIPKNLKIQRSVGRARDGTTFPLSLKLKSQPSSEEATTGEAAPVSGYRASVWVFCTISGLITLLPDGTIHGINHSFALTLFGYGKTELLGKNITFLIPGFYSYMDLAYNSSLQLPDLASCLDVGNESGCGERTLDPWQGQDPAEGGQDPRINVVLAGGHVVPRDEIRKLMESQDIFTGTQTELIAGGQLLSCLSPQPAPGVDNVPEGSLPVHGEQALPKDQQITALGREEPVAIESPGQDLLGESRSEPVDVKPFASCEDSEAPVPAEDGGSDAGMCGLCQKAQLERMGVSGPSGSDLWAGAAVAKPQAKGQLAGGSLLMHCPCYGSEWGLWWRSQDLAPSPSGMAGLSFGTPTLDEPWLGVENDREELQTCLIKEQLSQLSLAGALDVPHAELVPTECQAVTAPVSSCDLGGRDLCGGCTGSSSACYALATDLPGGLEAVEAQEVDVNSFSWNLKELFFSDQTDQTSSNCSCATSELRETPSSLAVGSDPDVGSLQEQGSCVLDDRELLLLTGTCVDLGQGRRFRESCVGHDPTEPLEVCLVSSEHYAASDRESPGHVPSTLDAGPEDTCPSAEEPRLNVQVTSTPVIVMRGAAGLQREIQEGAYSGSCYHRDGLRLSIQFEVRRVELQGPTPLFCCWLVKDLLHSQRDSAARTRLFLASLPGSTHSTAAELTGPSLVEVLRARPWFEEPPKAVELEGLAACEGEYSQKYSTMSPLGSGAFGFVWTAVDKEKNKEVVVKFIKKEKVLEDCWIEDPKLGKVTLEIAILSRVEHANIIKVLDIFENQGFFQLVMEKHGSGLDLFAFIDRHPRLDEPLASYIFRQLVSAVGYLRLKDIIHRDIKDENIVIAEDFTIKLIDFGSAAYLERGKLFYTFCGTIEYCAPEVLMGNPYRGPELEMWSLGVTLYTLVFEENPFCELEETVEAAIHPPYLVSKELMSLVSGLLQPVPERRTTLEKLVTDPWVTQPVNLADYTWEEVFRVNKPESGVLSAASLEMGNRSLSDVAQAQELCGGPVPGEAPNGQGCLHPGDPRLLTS

[3] = target: BDNF/NT-3 growth factors receptor (Homo sapiens) (UniProt Q16620); test: Selectivity interaction (KinomeScan (DiscoverX)) EUB0000666a NTRK2; conditions: at 10 µM
Sequence of BDNF/NT-3 growth factors receptor (Homo sapiens) (Q16620 32-822 limits assumed): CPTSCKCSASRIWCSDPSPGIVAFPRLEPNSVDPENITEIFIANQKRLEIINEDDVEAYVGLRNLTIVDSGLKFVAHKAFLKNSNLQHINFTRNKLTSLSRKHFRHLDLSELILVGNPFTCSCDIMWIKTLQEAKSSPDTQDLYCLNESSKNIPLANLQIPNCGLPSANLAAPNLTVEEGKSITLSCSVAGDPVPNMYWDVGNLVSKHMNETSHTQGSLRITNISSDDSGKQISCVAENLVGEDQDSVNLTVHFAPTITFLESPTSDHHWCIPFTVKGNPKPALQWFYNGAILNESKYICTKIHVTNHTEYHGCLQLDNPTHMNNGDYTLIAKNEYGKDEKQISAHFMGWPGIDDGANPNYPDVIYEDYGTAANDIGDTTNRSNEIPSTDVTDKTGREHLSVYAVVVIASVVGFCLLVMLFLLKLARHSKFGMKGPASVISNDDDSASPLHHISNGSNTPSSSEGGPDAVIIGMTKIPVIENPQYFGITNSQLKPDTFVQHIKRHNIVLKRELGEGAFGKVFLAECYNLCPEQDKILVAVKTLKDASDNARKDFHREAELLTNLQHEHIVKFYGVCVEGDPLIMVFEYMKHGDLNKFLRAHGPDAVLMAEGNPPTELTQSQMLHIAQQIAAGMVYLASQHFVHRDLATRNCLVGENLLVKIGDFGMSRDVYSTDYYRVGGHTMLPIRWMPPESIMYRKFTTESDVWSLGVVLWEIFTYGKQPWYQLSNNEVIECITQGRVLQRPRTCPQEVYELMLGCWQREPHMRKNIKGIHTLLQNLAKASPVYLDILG

Peregrin (Homo sapiens) = target: T1, Peregrin (Homo sapiens) (UniProt P55201); test: Selectivity interaction (Bromodomain panel (DSF asssay)) EUB0000270b BRPF1
T1 sequence (whole entry): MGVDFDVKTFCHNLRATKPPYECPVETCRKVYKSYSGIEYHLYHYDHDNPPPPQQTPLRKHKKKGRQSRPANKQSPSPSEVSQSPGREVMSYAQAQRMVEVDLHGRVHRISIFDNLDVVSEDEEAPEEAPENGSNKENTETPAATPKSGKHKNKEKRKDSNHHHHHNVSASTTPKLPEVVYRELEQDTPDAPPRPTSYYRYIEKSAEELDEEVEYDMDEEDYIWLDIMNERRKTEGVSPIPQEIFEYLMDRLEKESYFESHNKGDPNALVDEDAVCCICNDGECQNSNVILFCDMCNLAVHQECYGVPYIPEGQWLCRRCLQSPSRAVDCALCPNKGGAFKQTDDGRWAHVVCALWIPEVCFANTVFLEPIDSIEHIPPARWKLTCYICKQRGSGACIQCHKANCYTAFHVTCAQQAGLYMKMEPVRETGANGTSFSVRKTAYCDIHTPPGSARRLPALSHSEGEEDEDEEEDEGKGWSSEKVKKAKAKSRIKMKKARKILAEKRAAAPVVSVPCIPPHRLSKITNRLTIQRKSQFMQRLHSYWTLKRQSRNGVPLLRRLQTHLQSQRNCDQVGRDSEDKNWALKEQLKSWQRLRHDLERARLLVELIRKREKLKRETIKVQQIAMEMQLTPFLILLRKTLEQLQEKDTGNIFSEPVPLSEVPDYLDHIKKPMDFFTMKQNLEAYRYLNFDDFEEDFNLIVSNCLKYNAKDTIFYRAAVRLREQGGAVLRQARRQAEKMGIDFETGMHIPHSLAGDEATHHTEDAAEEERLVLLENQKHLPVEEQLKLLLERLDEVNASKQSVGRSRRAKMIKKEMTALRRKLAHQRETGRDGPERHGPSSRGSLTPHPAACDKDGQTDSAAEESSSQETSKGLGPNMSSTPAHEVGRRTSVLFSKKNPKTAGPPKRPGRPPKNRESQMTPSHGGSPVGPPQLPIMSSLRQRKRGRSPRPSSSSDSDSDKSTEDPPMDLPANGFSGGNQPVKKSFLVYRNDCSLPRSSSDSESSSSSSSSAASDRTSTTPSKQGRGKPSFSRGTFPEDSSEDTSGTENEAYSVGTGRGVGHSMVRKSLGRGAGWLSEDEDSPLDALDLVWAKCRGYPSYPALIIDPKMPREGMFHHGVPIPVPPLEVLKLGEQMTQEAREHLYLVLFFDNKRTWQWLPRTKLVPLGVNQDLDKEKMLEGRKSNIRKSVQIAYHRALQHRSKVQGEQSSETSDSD

[4] = target: T2, Serine/threonine-protein kinase Nek3 (Homo sapiens) (UniProt P51956); test: Selectivity interaction (KinomeScan (DiscoverX)) EUB0000695a NEK3; conditions: at 100 nM
T2 sequence (whole entry): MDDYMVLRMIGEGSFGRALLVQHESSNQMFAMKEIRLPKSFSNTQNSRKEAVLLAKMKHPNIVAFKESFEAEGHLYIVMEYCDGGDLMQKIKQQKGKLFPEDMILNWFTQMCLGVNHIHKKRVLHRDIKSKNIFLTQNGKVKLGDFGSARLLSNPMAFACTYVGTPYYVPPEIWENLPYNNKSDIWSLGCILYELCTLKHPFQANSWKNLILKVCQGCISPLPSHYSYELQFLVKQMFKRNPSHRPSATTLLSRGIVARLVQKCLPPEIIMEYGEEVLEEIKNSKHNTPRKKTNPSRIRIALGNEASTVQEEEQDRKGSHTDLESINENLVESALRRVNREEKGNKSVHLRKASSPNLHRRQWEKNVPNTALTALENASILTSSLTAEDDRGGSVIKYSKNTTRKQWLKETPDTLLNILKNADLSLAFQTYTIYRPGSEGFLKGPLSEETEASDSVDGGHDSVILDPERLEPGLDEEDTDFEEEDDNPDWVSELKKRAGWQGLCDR

[5] = target: Dual specificity protein kinase CLK1 (Homo sapiens, UniProt P49759); test: Selectivity interaction (KinomeScan (DiscoverX)) EUB0000618a CLK1; conditions: at 10 µM
Sequence of Dual specificity protein kinase CLK1 (P49759 whole entry, looked up): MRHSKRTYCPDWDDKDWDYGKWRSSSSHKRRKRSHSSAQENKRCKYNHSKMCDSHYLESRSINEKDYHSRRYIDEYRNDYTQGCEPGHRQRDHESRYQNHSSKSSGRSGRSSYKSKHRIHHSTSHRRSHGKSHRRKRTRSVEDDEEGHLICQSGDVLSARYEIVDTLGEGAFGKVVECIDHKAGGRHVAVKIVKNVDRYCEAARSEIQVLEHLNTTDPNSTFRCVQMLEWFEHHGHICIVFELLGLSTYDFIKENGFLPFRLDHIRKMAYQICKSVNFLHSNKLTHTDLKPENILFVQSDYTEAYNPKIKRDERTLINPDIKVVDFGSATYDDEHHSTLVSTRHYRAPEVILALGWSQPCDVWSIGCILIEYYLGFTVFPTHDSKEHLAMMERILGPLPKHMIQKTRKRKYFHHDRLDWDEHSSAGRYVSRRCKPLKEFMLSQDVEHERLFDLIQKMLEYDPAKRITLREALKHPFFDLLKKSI

[6] = target: T3, Activin receptor type-1 (Homo sapiens) (UniProt Q04771); test: Selectivity interaction (KinomeScan (DiscoverX)) EUB0000618a ACVR1; conditions: at 10 µM
T3 sequence (whole entry): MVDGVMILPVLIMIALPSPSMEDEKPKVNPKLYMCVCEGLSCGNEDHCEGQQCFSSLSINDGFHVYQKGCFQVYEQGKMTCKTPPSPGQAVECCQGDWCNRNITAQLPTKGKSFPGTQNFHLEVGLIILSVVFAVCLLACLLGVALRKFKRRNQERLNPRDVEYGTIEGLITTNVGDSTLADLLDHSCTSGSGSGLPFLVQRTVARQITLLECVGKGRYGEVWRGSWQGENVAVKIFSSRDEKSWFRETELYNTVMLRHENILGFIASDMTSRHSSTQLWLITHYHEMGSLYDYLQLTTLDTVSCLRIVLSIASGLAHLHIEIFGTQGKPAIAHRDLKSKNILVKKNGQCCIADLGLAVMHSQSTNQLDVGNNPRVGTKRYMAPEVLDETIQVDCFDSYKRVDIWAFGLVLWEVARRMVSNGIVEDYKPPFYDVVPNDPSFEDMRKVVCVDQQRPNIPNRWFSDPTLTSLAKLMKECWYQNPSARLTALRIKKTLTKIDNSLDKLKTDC

[7] = target: T4, Serine/threonine-protein kinase Sgk2 (Homo sapiens) (UniProt Q9HBY8); test: Selectivity interaction (Ambit KINOMEscan and KiNATiv profiling in Jurkat cells) EUB0000090b SGK2; format: cell-based; conditions: at 1 µM
T4 sequence (whole entry): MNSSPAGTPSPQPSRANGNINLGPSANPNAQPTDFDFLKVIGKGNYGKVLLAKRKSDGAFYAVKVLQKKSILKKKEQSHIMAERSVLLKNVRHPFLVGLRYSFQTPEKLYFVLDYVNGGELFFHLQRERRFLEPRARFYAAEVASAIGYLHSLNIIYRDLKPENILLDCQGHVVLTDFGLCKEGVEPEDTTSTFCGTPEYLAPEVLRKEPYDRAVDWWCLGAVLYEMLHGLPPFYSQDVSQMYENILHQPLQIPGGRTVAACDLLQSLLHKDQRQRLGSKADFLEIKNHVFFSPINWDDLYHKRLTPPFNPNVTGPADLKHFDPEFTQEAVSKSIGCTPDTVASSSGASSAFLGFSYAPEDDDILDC

Sequence of Dual specificity tyrosine-phosphorylation-regulated kinase 1B (Q9Y463 whole entry, looked up, the tested form may be a part): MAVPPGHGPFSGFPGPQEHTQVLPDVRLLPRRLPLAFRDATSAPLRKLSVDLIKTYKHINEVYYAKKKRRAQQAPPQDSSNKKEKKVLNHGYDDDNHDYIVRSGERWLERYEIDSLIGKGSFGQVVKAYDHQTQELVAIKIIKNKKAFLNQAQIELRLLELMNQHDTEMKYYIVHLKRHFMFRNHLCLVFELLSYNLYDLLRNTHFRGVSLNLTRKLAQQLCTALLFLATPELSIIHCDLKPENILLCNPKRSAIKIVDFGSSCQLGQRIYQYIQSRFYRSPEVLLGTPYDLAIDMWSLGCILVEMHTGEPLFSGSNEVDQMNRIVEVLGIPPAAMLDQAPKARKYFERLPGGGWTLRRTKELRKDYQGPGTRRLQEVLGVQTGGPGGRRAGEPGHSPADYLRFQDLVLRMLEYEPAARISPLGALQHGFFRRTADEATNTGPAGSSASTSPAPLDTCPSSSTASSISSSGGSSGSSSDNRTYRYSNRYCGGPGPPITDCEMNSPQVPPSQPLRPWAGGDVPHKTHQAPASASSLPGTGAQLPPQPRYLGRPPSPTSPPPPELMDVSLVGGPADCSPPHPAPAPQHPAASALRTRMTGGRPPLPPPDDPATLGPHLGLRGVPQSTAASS

Q: `CCC(=O)N1CCN(c2ccc(-n3c(=O)ccc4cnc5ccc(-c6cnc7ccccc7c6)cc5c43)cc2C(F)(F)F)CC1` was tested. Which % of control [1] did it give?
A: 87%

Q: For `Cc1ccc(-c2ccc3c(ccc4sc5c(c43)NC[C@@H](C)NC5=O)n2)cn1`, which % of inhibition [2] is on record?
A: 44%

Q: For `O=C(NOC[C@H](O)CO)c1ccc(F)c(F)c1Nc1ccc(I)cc1F`, which % of control [3] is on record?
A: 100%

Q: `Cc1cc(CN)cc(C)c1-c1ncn(C)c1-c1cncn1C` was tested. Which dTM (Peregrin (Homo sapiens)) did it give?
A: -1.98 K

Q: How did the % of control [4] turn out when `Cc1cc(F)c(C(=O)Nc2cccc(-c3nncn3C(C)C)n2)cc1-n1cnc(C2CC2)c1` was run?
A: 84%

Q: With `O[C@H]1CC[C@H](Nc2ncc3nc(Nc4c(F)cc(F)cc4F)n([C@H]4CCOC4)c3n2)CC1` as the compound, how does the % of control [5] read?
A: 79%

Q: And the % of control [6]?
A: 100%

Q: Which % of control [7] does the source give for `CN(C)C/C=C/C(=O)Nc1ccc(C(=O)N2CCCC(Nc3ncc(Cl)c(-c4c[nH]c5ccccc45)n3)C2)cc1` (stereo not drawn) here?
A: 100%
